Laboratory results published in PMC13586173, “Synthetic cannabinoid receptor agonists inhibit the cardiac voltage-gated potassium channel hERG” (Acta Pharmacologica Sinica, 2026).

Experiments:
human CB1 receptor = biological target: T1, human CB1 receptor (Homo sapiens, UniProt P21554); test: AequoScreen intracellular calcium release assay, CHO-K1 cells stably expressing CB1; type: cell-based; details: n ≥ 3 (JWH-030 n = 2)
T1 construct: host or cells: CHO-K1 stably expressing CB1, apoaequorin and Gα16
T1 sequence (P21554 whole entry): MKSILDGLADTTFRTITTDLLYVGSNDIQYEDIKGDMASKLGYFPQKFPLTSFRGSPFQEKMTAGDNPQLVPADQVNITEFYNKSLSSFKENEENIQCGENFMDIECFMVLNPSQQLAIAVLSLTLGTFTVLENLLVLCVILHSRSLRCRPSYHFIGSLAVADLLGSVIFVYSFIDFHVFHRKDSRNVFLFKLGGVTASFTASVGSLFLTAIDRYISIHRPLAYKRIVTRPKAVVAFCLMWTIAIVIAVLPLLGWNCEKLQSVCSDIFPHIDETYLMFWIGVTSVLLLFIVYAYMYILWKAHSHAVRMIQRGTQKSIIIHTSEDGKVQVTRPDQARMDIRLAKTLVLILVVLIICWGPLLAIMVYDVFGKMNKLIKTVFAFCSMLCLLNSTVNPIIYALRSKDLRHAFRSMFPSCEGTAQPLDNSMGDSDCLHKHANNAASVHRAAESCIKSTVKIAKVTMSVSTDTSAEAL

hERG (KV11.1) = hERG (KV11.1) (Homo sapiens, UniProt Q12809); test: Automated planar patch-clamp (APC, QPatch II 48), voltage-ladder protocol, CHO cells stably expressing human hERG
Chain of hERG (KV11.1) (Q12809 whole entry): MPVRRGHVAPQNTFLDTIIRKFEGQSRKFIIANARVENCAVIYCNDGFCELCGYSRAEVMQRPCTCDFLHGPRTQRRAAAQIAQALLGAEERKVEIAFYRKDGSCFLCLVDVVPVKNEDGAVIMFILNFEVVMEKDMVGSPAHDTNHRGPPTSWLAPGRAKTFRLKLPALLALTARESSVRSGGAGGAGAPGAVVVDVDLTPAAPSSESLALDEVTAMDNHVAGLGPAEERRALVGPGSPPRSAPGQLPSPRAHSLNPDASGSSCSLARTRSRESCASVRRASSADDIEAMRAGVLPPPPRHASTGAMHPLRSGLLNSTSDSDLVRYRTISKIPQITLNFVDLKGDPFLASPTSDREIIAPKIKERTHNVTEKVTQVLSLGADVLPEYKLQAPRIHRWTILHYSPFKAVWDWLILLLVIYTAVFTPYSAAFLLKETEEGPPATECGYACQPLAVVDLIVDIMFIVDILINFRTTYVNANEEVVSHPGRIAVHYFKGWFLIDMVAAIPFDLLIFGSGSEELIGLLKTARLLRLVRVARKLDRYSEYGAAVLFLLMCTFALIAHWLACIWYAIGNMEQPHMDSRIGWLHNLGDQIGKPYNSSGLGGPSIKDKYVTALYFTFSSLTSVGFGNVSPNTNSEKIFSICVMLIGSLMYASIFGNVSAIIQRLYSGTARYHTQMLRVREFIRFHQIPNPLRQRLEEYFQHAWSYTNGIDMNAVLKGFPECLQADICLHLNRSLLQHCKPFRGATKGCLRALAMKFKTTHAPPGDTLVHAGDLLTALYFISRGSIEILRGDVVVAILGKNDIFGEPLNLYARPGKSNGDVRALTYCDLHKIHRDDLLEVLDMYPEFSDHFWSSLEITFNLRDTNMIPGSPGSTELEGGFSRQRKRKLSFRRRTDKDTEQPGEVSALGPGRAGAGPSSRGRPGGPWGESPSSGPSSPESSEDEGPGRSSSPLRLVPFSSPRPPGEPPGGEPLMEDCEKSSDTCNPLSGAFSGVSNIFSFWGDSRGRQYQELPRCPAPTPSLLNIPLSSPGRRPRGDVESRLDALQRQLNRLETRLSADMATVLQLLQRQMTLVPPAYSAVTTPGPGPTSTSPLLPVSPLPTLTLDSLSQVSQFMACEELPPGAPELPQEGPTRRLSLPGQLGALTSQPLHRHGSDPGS

## COC(=O)C(NC(=O)c1nn(CCCCCF)c2ccccc12)C(C)(C)C (centres unmarked) [5F-MDMB-PINACA, methyl 2-{[1-(5-fluoropentyl)-1H-indazole-3-carbonyl]amino}-3,3-dimethylbutanoate]
Human CB1 receptor; CB1 receptor Potency EC50, normalized to median EC50 of JWH-018
  EC50: 0.00899 µM
Human CB1 receptor; normalized to maximum of JWH-018
  CB1 receptor Efficacy Emax: 131 % JWH-018
hERG (KV11.1)
  IC50: 9 µM
hERG (KV11.1); APC concentration-response, 1.11 to 30 µM
  effect on Gmax of hERG (in words): one of the most prominent in reducing Gmax of hERG
hERG (KV11.1); best fit, 1 = no reduction of Gmax, 0 = complete reduction, APC, 22 °C
  hERG channel Efficacy (max reduction in Gmax) Gmin: 0.00
